Measurements as given in publication PMC6262408, “Recovery of the Peptidoglycan Turnover Product Released by the Autolysin Atl in Staphylococcus aureus Involves the Phosphotransferase System Transporter MurP and the Novel 6-phospho-N-acetylmuramidase MupG” (Frontiers in Microbiology, 2018).

Biological target: T1, MupG (Staphylococcus aureus, UniProt A0A0H2XHV5)
T1 sequence (A0A0H2XHV5 1-351): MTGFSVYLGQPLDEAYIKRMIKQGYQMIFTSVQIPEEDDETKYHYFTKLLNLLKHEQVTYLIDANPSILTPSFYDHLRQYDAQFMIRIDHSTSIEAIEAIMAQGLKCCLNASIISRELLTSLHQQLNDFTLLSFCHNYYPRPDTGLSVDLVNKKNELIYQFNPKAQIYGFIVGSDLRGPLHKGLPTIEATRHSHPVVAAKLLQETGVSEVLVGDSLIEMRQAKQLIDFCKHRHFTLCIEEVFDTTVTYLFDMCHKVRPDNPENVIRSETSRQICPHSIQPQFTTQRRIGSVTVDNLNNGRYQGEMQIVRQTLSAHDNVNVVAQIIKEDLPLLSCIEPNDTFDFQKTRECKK
Assay: LC-MS of hydrolysis by recombinant enzyme
Assay type: biochemical
Details: substrate in acetone extract of ΔmupG cytosol; 1 μg enzyme, 2.5 h, 37 °C; products MurNAc 6P and GlcNAc

SMILES: CC(=O)N[C@H]1[C@H](O[C@H]2[C@H](O)[C@@H](NC(C)=O)C(O)O[C@@H]2CO)O[C@H](COP(=O)(O)O)[C@@H](O)[C@@H]1O[C@H](C)C(=O)O (stereo partly shown) [MurNAc 6P-GlcNAc]
- LC-MS of hydrolysis by recombinant enzyme: recombinantly produced MupG cleaved MurNAc 6P-GlcNAc, releasing MurNAc 6P and GlcNAc
